pIC50: −log10 of the molar value.

The target in one test is T1, human RIG-I (Homo sapiens, UniProt O95786).
T1 construct: other nucleic acid intracellular signaling receptors in primary human leukocytes; endogenous in cells; host or cells: primary human leukocytes
T1 sequence (O95786 1-925): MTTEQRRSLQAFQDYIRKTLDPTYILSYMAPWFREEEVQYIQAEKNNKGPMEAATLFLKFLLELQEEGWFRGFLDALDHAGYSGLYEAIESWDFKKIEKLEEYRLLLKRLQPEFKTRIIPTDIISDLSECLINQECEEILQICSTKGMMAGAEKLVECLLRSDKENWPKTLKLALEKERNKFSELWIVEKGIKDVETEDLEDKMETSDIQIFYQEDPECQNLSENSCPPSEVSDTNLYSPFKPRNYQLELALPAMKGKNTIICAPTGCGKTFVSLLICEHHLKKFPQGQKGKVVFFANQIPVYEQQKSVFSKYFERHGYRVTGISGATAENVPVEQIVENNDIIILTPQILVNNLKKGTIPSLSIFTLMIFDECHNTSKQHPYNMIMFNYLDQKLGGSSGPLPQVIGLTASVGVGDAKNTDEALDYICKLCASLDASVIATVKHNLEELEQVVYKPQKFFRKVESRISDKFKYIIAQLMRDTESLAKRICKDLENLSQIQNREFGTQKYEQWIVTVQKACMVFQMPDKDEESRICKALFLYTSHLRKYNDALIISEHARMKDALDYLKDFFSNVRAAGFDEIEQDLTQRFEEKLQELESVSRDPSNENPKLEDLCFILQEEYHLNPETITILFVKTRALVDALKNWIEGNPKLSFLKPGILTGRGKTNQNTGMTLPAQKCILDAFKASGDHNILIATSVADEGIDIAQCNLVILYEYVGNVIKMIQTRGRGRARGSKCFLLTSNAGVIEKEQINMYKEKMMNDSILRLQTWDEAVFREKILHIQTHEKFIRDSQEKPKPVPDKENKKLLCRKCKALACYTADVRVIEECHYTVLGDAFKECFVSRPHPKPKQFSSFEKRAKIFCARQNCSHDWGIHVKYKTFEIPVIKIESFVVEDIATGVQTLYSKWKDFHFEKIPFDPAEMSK
As to the kind of experiment: Receptor specificity in primary human leukocytes: RIG-I. The format is cell-based. The method, then: (§1) Example B5—Receptor Specificity
(§2) Representative compounds were tested for antagonist activity against related toll-like receptor family members and other nucleic acid intracellular signaling receptors in primary human leukocytes. The compounds were Compound Nos. 5 and 9, and they were tested for their ability to inhibit human RIG-I, TLR-2, TLR-4, and TLR-5. With one exception, neither compound was able to inhibit these receptors greater than 50% at 10 μM.

Another test concerns the target T2, TLR-5 (Homo sapiens, UniProt O60602).
T2 construct: related toll-like receptor family members and other nucleic acid intracellular signaling receptors in primary human leukocytes; endogenous in cells; host or cells: primary human leukocytes
As to the kind of experiment: Receptor specificity in primary human leukocytes: TLR-5. The format is cell-based. The method, then: as §1, §2

In a further test the target is T3, mouse TLR9 (Mus musculus, UniProt Q9EQU3).
T3 construct: Balb/c mice (Charles River); host or cells: Balb/c mice, in vivo
T3 sequence (Q9EQU3 26-1032): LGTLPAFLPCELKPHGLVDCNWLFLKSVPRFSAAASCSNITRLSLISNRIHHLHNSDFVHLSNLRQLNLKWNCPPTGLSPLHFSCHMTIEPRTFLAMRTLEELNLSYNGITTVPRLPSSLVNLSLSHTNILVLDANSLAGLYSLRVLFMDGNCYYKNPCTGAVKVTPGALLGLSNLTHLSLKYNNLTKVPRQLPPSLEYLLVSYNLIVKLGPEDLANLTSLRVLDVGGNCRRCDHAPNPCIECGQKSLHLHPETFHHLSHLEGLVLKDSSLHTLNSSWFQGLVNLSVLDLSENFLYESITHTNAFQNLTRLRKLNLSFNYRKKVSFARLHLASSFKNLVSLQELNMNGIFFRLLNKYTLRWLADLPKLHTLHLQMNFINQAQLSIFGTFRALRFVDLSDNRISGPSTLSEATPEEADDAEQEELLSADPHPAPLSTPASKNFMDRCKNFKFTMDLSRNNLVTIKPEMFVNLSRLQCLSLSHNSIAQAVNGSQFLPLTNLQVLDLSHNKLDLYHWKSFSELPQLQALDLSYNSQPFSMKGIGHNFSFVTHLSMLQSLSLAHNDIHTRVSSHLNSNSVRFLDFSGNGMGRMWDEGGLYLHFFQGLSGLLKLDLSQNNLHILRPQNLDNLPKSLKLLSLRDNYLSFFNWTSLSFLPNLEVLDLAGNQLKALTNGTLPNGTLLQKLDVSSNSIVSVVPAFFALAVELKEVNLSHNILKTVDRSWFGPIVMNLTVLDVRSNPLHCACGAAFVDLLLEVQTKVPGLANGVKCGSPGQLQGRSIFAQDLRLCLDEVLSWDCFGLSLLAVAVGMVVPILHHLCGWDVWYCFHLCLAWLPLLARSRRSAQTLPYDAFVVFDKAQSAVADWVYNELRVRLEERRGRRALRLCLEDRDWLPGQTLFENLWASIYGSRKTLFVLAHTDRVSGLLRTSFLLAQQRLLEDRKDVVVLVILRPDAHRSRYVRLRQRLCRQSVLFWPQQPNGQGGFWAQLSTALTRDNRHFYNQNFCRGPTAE
As to the kind of experiment: Inhibition of mouse TLR9 in mouse acute challenge model (serum IL-12). To be noted: 5 mg/Kg, intravenous or intra-peritoneal, serum IL-12 four hours after CpG DNA agonist. The format is in vivo. The protocol:
Example B4—Inhibition of Mouse TLR9 in Mouse Acute Challenge Model
When administered a CpG-containing DNA oligonucleotide, mice respond in an acute manner with release of cytokines into the peripheral blood within 6 hours. The addition of an inhibitor against TLR9 will attenuate the response to the DNA oligonucleotide agonist, which can be measured through a reduction in serum cytokines.
Balb/c mice (Charles River). TLR9 agonist 1018 ISS, CpG-containing DNA oligonucleotide. Mouse interleukin (IL)-12p40 ELISA kit (BD Pharmingen Cat. No. 551219 and 554476).
Mice were injected by the intravenous or intra-peritoneal routes with test compound at 5 mg/kg. Following injection of test compound, mice were injected with a TLR9 agonist (a CpG-containing DNA oligonucleotide) by the intra-peritoneal route to a final dose of approximately 2.5 mg/kg. Four hours following administration of the DNA oligonucleotide, blood was collected and processed to serum. The serum was tested for the presence of IL-12 using an ELISA kit. The amount of IL-12 produced is a reflection of the amount of TLR9-dependent receptor activity.

T2 sequence (O60602 21-858): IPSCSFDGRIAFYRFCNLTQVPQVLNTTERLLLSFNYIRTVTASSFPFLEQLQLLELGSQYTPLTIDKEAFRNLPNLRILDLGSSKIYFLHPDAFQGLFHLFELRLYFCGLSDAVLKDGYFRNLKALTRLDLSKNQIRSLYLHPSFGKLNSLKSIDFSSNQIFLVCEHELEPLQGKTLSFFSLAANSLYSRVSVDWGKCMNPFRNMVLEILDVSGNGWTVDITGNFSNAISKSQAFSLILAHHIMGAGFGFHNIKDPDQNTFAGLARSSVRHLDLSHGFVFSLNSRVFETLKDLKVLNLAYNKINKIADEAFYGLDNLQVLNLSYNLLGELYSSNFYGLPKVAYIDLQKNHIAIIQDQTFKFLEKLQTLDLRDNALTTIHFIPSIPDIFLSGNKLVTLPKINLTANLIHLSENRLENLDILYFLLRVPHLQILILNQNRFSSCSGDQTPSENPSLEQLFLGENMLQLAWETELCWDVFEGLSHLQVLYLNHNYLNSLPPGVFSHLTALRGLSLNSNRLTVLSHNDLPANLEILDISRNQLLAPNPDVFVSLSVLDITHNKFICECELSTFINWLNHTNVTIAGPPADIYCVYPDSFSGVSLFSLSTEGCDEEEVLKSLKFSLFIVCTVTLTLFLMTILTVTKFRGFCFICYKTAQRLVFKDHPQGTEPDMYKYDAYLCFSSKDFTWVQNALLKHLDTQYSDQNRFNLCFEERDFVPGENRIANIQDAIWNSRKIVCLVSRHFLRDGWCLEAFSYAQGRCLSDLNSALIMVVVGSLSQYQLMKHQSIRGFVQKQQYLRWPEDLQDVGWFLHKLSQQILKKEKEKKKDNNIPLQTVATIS

A word on the pIC50: it is the IC50 on a negative log10 scale, so that one unit is a factor of ten. As usually defined, the inhibition is the relative decrease from the control value, in per cent. A low value points to a weak effect. Consider `Cc1ccc(-n2nc3c(N4CCC(CCC(=O)NCCN(C)C)CC4)nnc(C)c3c2C)cc1` [Compound No. 9, 3-(1-(3,4-dimethyl-2-(p-tolyl)-2H-pyrazolo[3,4-d]pyridazin-7-yl)piperidin-4-yl)-N-(2-(dimethylamino)ethyl)propanamide], for which, on human RIG-I (read-out: IC50 against RIG-I), the pIC50 was 5.08. On TLR-5, this compound yielded an inhibition at 10 µM of at most 50%.

For `Cc1ccc(-n2nc3c(N4CCC(C(=O)NCCCN(C)C)CC4)nnc(C)c3c2C)cc1` [Compound No. 5, 1-(3,4-dimethyl-2-(p-tolyl)-2H-pyrazolo[3,4-d]pyridazin-7-yl)-N-(3-(dimethylamino)propyl)piperidine-4-carboxamide], the “inhibition of TLR9 activity in mice (FIG. 1)” value at mouse TLR9 is reported as “inhibition of TLR9 activity”. The inhibition at 10 µM against human RIG-I (at 10 μM) and at TLR-5 was at most 50% in each case.

These data come from US11370794B2, “Toll-like receptor antagonist compounds and methods of use” (Dynavax Technologies Corporation, priority 2016, dated 2022).
